Earlier results, collected in patent US8182834B2, “Ternary non-lamellar lipid compositions” (Camurus AB, priority 2004, dated 2012).

## CCCCCCCC/C=C\CCCCCCCC(=O)OCC(O)CO (centres unmarked) [glycerol monooleate]
Room temperature
  equilibrium water solubility: ~10^−7 M
water, 25 ° C.
  Equilibrium solubility concentration: ~10^−7 M
